In patent publication US9375424B2, “Compounds that treat malaria and prevent malaria transmission” (The United States of America, as represented by the …, priority 2009, dated 2016):
Structures can show the parent of a compound that is named as a salt. Where two headings read alike, the source gives them in different places.

Columns and labels:
P. falciparum lines = test: qHTS SYBR Green Plasmodium proliferation assay in infected erythrocytes (seven parasite lines); format: cell-based; details: Erythrocyte, read-out: IC50, inhibition of proliferation in all parasite lines
Description: The P. falciparum lines used in this study have been described previously (Mu J, et al. Multiple transporters associated with malaria parasite responses to chloroquine and quinine. Mol Microbiol 2003;49:977-989). […] Briefly, 3 μl culture medium was dispensed into 1536-well black clear-bottom plates (Aurora Biotechnologies) using a Multidrop Combi (Thermo Fisher Scientific Inc.); 23-nL compounds in DMSO were added by a pin tool (Kalypsys), and 5 μl of P. falciparum-infected RBCs (0.3% parasitemia, 2.5% hematocrit final concentration) were added. The plates were incubated at 37° C. in a humidified incubator in 5% CO2 for 72 h, and 2 μl lysis buffer (20 mM Tris-HCl, 10 mM EDTA, 0.16% saponin, 1.6% triton-X, 10× SYBR Green I supplied as 10,000× final concentration by Invitrogen) was added to each well. The plates were mixed for 25 sec with gentle shaking and incubated overnight at room temperature in the dark. The following morning, fluorescence intensity at 485 (14) nm excitation and 535 (25) nm emission wavelengths was measured on an En Vision (Perkin Elmer) plate reader. […] The plates were incubated at 37° C. under 5% CO2, 5% 02, and 90% N2 for 72 h, incubated for another 30 min after addition of 50 μl lysis buffer, and read in a FLUOstar OPTIMA reader (BMG Labtech). Data were analyzed using software at the NIAID Bioinformatic Resources (niaid-biocluster.niaid.nih.gov/cgi-bin/bipod2/index.cgi). Parasite proliferation was measured after 72 hr of incubation (corresponding to 1.5 generations of intra-erythrocytic parasite growth), with each compound tested at seven or eight five-fold dilutions beginning at 29 μM. […] The potencies of known antimalarial agents had similar values determined by the assay in 96-well plate format. […] Although the determined potencies of 4 were lower, the relative potency between lines sensitive to 4, HB3, 3D7, and D10 were clearly distinguished from resistant lines. […] The potencies of compounds scored as active or inconclusive in both replicates correlated well indicating good repeatability in determining IC50 values between replicates.

[1] = system: Plasmodium yoelii nigeriensis; format: in vivo; details: for oocyst formation: mosquito feeding 1 hr after treatment (FIG. 1A), untreated control average 460 oocysts per mosquito
Description: Mice infected with Plasmodium yoelii nigeriensis were treated with drugs in different concentrations for various time periods and were exposed to mosquitoes. Oocysts were counted from dissected midgut 9-10 days after feeding. FIG. 1A, the number of oocysts from mosquitoes fed on mice treated with different TAA compounds for 1 hour. CAR, carbita Pentane (100 mg/kg); CHL, chlorpromazine (30 mg/kg); DEQ, dequalinium dichloride (10 mg/kg); Dox, doxipin hydrochloride (30 mg/kg); Ima, Imipramine (100 mg/kg), KET, ketotifen (100 mg/kg); Pro, protryptiline hydrochloride (10 mg/kg). FIG. 1B, the number of oocysts from mosquitoes fed on mice treated with different concentrations of ketotifen (KET) for 1 hour, compared with those treated with standard anti-malarial drugs, primaquine (PQ, 5 and 10 mg/kg), arteminisinin (ART, 5 mg/kg) and chloroquine (CQ, 10 mg/kg). FIG. 1C, the number of oocysts from mosquitoes fed on mice treated with a single dose of 0.5 mg/kg or 0.1 mg/kg of ketotifen (KET) for 1, 6 or 24 hours. FIG. 1D, the number of oocysts from mosquitoes fed on mice treated with two doses of 0.5 mg/kg or 0.1 mg/kg (filled symbol) of ketotifen (KET) for 1, 6 or 24 hours. CON, no drug control.
For testing transmission-blocking activity in vivo, CD-1 strain female mice, aged 6-8 weeks old, were infected intra-peritoneally (i.p.) with 5×106 P. yoelii nigeriensis. In a preliminary experiment, on day 3 post infection the animals were administrated i.p. a single dose of tricyclic antihistamine and antidepressants (TAA) compound or pharmaceutical-grade phosphate buffer saline (pH 7.4). Starting 1 hr after the administration of the TAA compound, the animals were anesthetized and brought into contact with a colony of Anopheles stephensimosquitoes. The mosquitoes were allowed to feed on the mice. Unfed or partially engorged mosquitoes were removed from the cages. The mosquitoes were maintained for 9-10 days 24 ±1° C. and 80-90% relative humidity. The gametocytocidal activity of the test compound was accessed on the basis of the oocyst counts in mosquitoes fed on treated animals and a control group. In subsequent experiments, the gametocytocidal action of ketotifin at different concentrations and doses was evaluated similarly. One group was given a single dose of 0.1, 0.5, 1, 5, 10, 30 or 60 mg/kg on day 3 post infection and subjected to mosquito feeding 1 hr after compound administration. Primaquine, chloroquine and arteminsin were used as reference drugs. The other group was given one dose or two doses of 0.1 or 0.5 mg/kg at 4 hr interval and subjected to mosquito feeding 1, 6 or 24 hrs after the final drug administration.

[2] = system: P. falciparum gametocytes; test: killing of P. falciparum gametocytes in vitro; format: cell-based, Plasmodium falciparum
[3] = all seven parasite lines, 72 h incubation
[4] = 5 mg/kg single dose, treatment for 1 hr
[5] = two doses of 0.5 mg/kg at 4 hours interval, 24-hour treatment

With `Cc1cc(N)c2ccccc2[n+]1CCCCCCCCCC[n+]1c(C)cc(N)c2ccccc21` [dequalinium dichloride] the IC50 (P. falciparum lines; [3]) was less than 2000 nM.
`CNCCCC1c2ccccc2C=Cc2ccccc21` [protryptiline hydrochloride] was tested, and the oocyst formation ([1]; 10 mg/kg single dose i.p.) was “strong reduction in oocyst formation”.
`CCN(CC)CCCC(C)Nc1c2ccc(Cl)cc2nc2ccc(OC)cc12` (stereo not shown) [quinacrine] showed an IC50 (P. falciparum lines; 72 h) of less than 2000 nM.
For `COc1cc(NC(C)CCCN)c2ncccc2c1` (stereo not shown) [primaquine], the “mosquitoes that had oocysts” value [1, 4] was 7 of 21 and the oocyst counts [1, 4] was 6 oocysts per mosquito.
Molecule `CC(=O)O[C@H]1C(=O)[C@@]2(C)[C@H]([C@H](OC(=O)c3ccccc3)[C@]3(O)C[C@H](OC(=O)[C@H](O)[C@@H](NC(=O)c4ccccc4)c4ccccc4)C(C)=C1C3(C)C)[C@]1(OC(C)=O)CO[C@@H]1C[C@@H]2O` [taxol] has an IC50 (P. falciparum lines; [3]) of less than 2000 nM.
In the case of `CN1CCC(=C2c3ccccc3CC(=O)c3sccc32)CC1` [ketotifen], the “concentration that completely kills P. falciparum gametocytes in vitro” value [2] is reported as 0.5 µM, the “average number of oocysts per mosquito” value ([1]; 1 mg/kg single dose, treatment for 1 hr (FIG. 1B)) is reported as 34 oocysts per mosquito and the “mosquitoes that had oocysts” value [1, 4] is reported as 2 of 44. For the same molecule, the oocyst counts [1, 4] was 0.13 oocysts per mosquito, the oocyst development ([1]; 5 mg/kg single dose, treatment for 1 hr (FIG. 1B)) was “almost completely blocked oocyst development” and the oocyst formation ([1]; 100 mg/kg single dose i.p.) was “strong reduction in oocyst formation”. For the same molecule, the “dose achieving similar reduction in oocyst count to primaquine, as share of the primaquine dose” value ([1]; relative to primaquine dose) was 10%, the oocyst counts ([1]; single dose 0.1 mg/kg, 24 hours prior to mosquito feeding (FIG. 1C)) was 82 oocysts per mosquito and the oocyst counts ([1]; single dose 0.5 mg/kg, 24 hours prior to mosquito feeding (FIG. 1C)) was 12 oocysts per mosquito. The oocyst counts ([1]; two doses of 0.1 mg/kg at 4 hours interval, 24-hour treatment time (FIG. 1D)) was 80 oocysts per mosquito, the “mosquitoes that had oocysts” value [1, 5] was 4 of 23 and the “oocysts in the mosquitoes” value [1, 5] was “almost completely eliminated oocysts”. It also gave an oocyst counts ([1]; two doses of 0.5 mg/kg at 4 hours interval, 24-hour treatment (FIG. 1D)) of 2 oocysts per mosquito.
